How the values were obtained:
barnyardgrass [1] = assay: Test A pre-/postemergence herbicide test; type: in vivo, Echinochloa crus-galli
Outline: (§1)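 Seeds sown in sandy loam received a preemergence directed soil spray of compound in non-phytotoxic solvent with surfactant; postemergence plants (2–10 cm, one- to two-leaf stage) were sprayed to runoff at the same time. After ~10 days in greenhouse, injury was rated visually versus untreated controls (0 = no effect, 100 = complete control).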

large crabgrass [2] = assay: Test A pre-/postemergence herbicide test; type: in vivo, Digitaria sanguinalis
Outline: as §1

giant foxtail [3] = assay: Test A pre-/postemergence herbicide test; type: in vivo, Setaria faberi
Outline: as §1

morningglory [4] = assay: Test A pre-/postemergence herbicide test; type: in vivo, Ipomoea spp.
Outline: as §1

redroot pigweed = assay: Test A pre-/postemergence herbicide test; type: in vivo, Amaranthus retroflexus
Outline: as §1

velvetleaf [5] = assay: Test A pre-/postemergence herbicide test; type: in vivo, Abutilon theophrasti
Outline: as §1

barnyardgrass [6] = assay: Test B pre-/postemergence herbicide test; type: in vivo, Echinochloa crus-galli; details: for Plant response rating, Barnyardgrass: preemergence; for Barnyardgrass plant response rating: postemergence, visual rating, scale 0 (no effect) to 100 (complete control)
Outline: (§2)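 Formulation: non-phytotoxic solvent mix with surfactant. Timing: preemergence on seed and postemergence on 2–18 cm plants, applied concurrently. Readout after 13–15 d greenhouse: visual 0–100 control rating against controls.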

Surinam grass = assay: Test B pre-/postemergence herbicide test; type: in vivo, Urochloa decumbens; details: for Plant response rating, Surinam Grass: preemergence; for Surinam Grass plant response rating: postemergence, visual rating, scale 0 (no effect) to 100 (complete control)
Outline: (§3)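 Response was scored visually 13 to 15 days after treatment against untreated greenhouse controls, 0 meaning no effect and 100 complete control. Formulations (solvent mixture plus surfactant) went onto soil after planting, onto foliage of 1- to 4-leaf plants, and onto 2-leaf plants in a flooded paddy set including rice and barnyardgrass.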

cocklebur = assay: Test B pre-/postemergence herbicide test; type: in vivo, Xanthium strumarium; details: for Plant response rating, Cocklebur: preemergence; for Cocklebur plant response rating: postemergence, visual rating, scale 0 (no effect) to 100 (complete control)
Outline: as §2

corn = assay: Test B pre-/postemergence herbicide test; type: in vivo, Zea mays; details: for Plant response rating, Corn: preemergence; for Corn plant response rating: postemergence, visual rating, scale 0 (no effect) to 100 (complete control)
Outline: as §3

large crabgrass [7] = assay: Test B pre-/postemergence herbicide test; type: in vivo, Digitaria sanguinalis; details: for Plant response rating, Crabgrass, Large: preemergence; for Crabgrass, Large plant response rating: postemergence, visual rating, scale 0 (no effect) to 100 (complete control)
Outline: as §3

giant foxtail [8] = assay: Test B pre-/postemergence herbicide test; type: in vivo, Setaria faberi; details: for Plant response rating, Foxtail, Giant: preemergence; for Foxtail, Giant plant response rating: postemergence, visual rating, scale 0 (no effect) to 100 (complete control)
Outline: as §3

lambsquarters = assay: Test B pre-/postemergence herbicide test; type: in vivo, Chenopodium album; details: for Plant response rating, Lambsquarters: preemergence; for Lambsquarters plant response rating: postemergence, visual rating, scale 0 (no effect) to 100 (complete control)
Outline: as §3

morningglory [9] = assay: Test B pre-/postemergence herbicide test; type: in vivo, Ipomoea coccinea; details: for Plant response rating, Morningglory: preemergence; for Morningglory plant response rating: postemergence, visual rating, scale 0 (no effect) to 100 (complete control)
Outline: as §2

pigweed = assay: Test B pre-/postemergence herbicide test; type: in vivo, Amaranthus retroflexus; details: for Plant response rating, Pigweed: preemergence; for Pigweed plant response rating: postemergence, visual rating, scale 0 (no effect) to 100 (complete control)
Outline: as §3

rice [10] = assay: Test B pre-/postemergence herbicide test; type: in vivo, Oryza sativa; details: preemergence
Outline: as §3

velvetleaf [11] = assay: Test B pre-/postemergence herbicide test; type: in vivo, Abutilon theophrasti; details: for Plant response rating, Velvetleaf: preemergence; for Velvetleaf plant response rating: postemergence, visual rating, scale 0 (no effect) to 100 (complete control)
Outline: as §3

blackgrass = assay: Test B postemergence herbicide test; type: in vivo, Alopecurus myosuroides; details: postemergence, visual rating, scale 0 (no effect) to 100 (complete control)
Outline: (§4)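 Scale 0–100: zero equals no visible effect, 100 complete control, judged by eye relative to controls. Timing: 13 to 15 days in greenhouse post-treatment. Growth stage at spraying: two leaves (paddy) or one to four leaves, 2–18 cm (postemergence).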

wheat = assay: Test B postemergence herbicide test; type: in vivo, Triticum aestivum; design: key to Wheat plant response rating: 0 = no effect, 100 = complete control; details: postemergence, 500 g ai/ha; visual rating, scale 0 (no effect) to 100 (complete control)
Outline: (§5)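 Greenhouse test; postemergence application to plants at 1–4 leaves (2–18 cm); paddy species at 2 leaves; evaluated visually vs controls at 13–15 days; scale 0–100 (100 = complete control).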

wild oat = assay: Test B postemergence herbicide test; type: in vivo, Avena fatua; details: postemergence, visual rating, scale 0 (no effect) to 100 (complete control)
Outline: as §5

rice [12] = assay: Test B flooded paddy test; type: in vivo, Oryza sativa; details: 1000 g ai/ha, visual rating, scale 0 to 100 (0 no effect, 100 complete control), 13 to 15 days
Outline: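 Postemergence plants were sprayed with formulated test chemicals at 2 to 18 cm height (1- to 4-leaf stage); paddy species were grown to the 2-leaf stage. After 13 to 15 days in a greenhouse, injury was rated visually against untreated controls on a 0–100 scale (0 = no effect, 100 = complete control).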

[13] = tested on: small flower umbrella sedge; assay: Test B flooded paddy test; type: in vivo, Cyperus difformis; details: 1000 g ai/ha, visual rating, scale 0 to 100 (0 no effect, 100 complete control), 13 to 15 days
Outline: as §4

ducksalad = assay: Test B flooded paddy test; type: in vivo, Heteranthera limosa; details: 1000 g ai/ha, visual rating, scale 0 to 100 (0 no effect, 100 complete control), 13 to 15 days
Outline: as §4

barnyardgrass [14] = assay: Test B flooded paddy test; type: in vivo, Echinochloa crus-galli; details: 1000 g ai/ha, visual rating, scale 0 to 100 (0 no effect, 100 complete control), 13 to 15 days
Outline: as §4

[15] = Postemergence, 500 g ai/ha, 0 to 100 scale, 0 no effect, 100 complete control
[16] = Postemergence, 2000 g ai/ha, 0 to 100 scale, 0 no effect, 100 complete control
[17] = Preemergence, 500 g ai/ha, visual rating, 0 to 100 scale (0 no effect, 100 complete control)
[18] = Preemergence, 2000 g ai/ha, visual rating, 0 to 100 scale (0 no effect, 100 complete control)
[19] = preemergence, 500 g ai/ha, visual injury, 0 to 100 scale (0 no effect, 100 complete control)
[20] = 500 g ai/ha, visual rating 0-100, 0 no effect, 100 complete control
[21] = 125 g ai/ha, 0 to 100 scale, 0 is no effect, 100 is complete control

CCn1nc(C(C)(C)C)cc1C(=O)Nc1nc(OC)cc(OC)n1 [Compound 166]
Barnyardgrass plant response rating (barnyardgrass [1]; [15]): 0
Plant response rating, Barnyardgrass (barnyardgrass [1]; [16]): 10
Barnyardgrass plant response rating (barnyardgrass [1]; [17]): 0
Barnyardgrass plant response rating (barnyardgrass [1]; [18]): 10
Crabgrass, Large plant response rating (large crabgrass [2]; [15]): 0
Plant response rating, Crabgrass, Large (large crabgrass [2]; [16]): 0
Crabgrass, Large plant response rating (large crabgrass [2]; [17]): 0
Crabgrass, Large plant response rating (large crabgrass [2]; [18]): 30
Foxtail, Giant plant response rating (giant foxtail [3]; [15]): 0
Plant response rating, Foxtail, Giant (giant foxtail [3]; [16]): 20
Foxtail, Giant plant response rating (giant foxtail [3]; [17]): 0
Foxtail, Giant plant response rating (giant foxtail [3]; [18]): 10
Morningglory plant response rating (morningglory [4]; [15]): 0
Plant response rating, Morningglory (morningglory [4]; [16]): 10
Morningglory plant response rating (morningglory [4]; [17]): 0
Morningglory plant response rating (morningglory [4]; [18]): 5
Pigweed plant response rating (redroot pigweed; [15]): 20
Plant response rating, Pigweed (redroot pigweed; [16]): 25
Pigweed plant response rating (redroot pigweed; [18]): 10
Pigweed plant response rating (redroot pigweed; [19]): 0
Velvetleaf plant response rating (velvetleaf [5]; [15]): 20
Plant response rating, Velvetleaf (velvetleaf [5]; [16]): 30
Velvetleaf plant response rating (velvetleaf [5]; [18]): 5
Velvetleaf plant response rating (velvetleaf [5]; [19]): 0
Plant response rating, Barnyardgrass (barnyardgrass [6]; [20]): 0
Barnyardgrass plant response rating (barnyardgrass [6]; 125 g ai/ha): 0
Barnyardgrass plant response rating (barnyardgrass [6]; 500 g ai/ha): 0
Plant response rating, Barnyardgrass (barnyardgrass [6]; [21]): 0
Plant response rating, Surinam Grass (Surinam grass; [20]): 0
Surinam Grass plant response rating (Surinam grass; 125 g ai/ha): 0
Surinam Grass plant response rating (Surinam grass; 500 g ai/ha): 0
Plant response rating, Surinam Grass (Surinam grass; [21]): 0
Plant response rating, Cocklebur (cocklebur; [20]): 0
Cocklebur plant response rating (cocklebur; 125 g ai/ha): 0
Cocklebur plant response rating (cocklebur; 500 g ai/ha): 0
Plant response rating, Cocklebur (cocklebur; [21]): 0
Plant response rating, Corn (corn; [20]): 0
Corn plant response rating (corn; 125 g ai/ha): 0
Corn plant response rating (corn; 500 g ai/ha): 0
Plant response rating, Corn (corn; [21]): 0
Plant response rating, Crabgrass, Large (large crabgrass [7]; [20]): 0
Crabgrass, Large plant response rating (large crabgrass [7]; 125 g ai/ha): 0
Crabgrass, Large plant response rating (large crabgrass [7]; 500 g ai/ha): 0
Plant response rating, Crabgrass, Large (large crabgrass [7]; [21]): 0
Plant response rating, Foxtail, Giant (giant foxtail [8]; [20]): 0
Foxtail, Giant plant response rating (giant foxtail [8]; 125 g ai/ha): 0
Foxtail, Giant plant response rating (giant foxtail [8]; 500 g ai/ha): 0
Plant response rating, Foxtail, Giant (giant foxtail [8]; [21]): 0
Plant response rating, Lambsquarters (lambsquarters; [20]): 0
Lambsquarters plant response rating (lambsquarters; 125 g ai/ha): 0
Lambsquarters plant response rating (lambsquarters; 500 g ai/ha): 0
Plant response rating, Lambsquarters (lambsquarters; [21]): 0
Plant response rating, Morningglory (morningglory [9]; [20]): 0
Morningglory plant response rating (morningglory [9]; 125 g ai/ha): 0
Morningglory plant response rating (morningglory [9]; 500 g ai/ha): 0
Plant response rating, Morningglory (morningglory [9]; [21]): 0
Plant response rating, Pigweed (pigweed; [20]): 0
Pigweed plant response rating (pigweed; 125 g ai/ha): 0
Pigweed plant response rating (pigweed; 500 g ai/ha): 0
Plant response rating, Pigweed (pigweed; [21]): 0
Plant response rating, Rice (rice [10]; [20]): 0
Plant response rating, Rice (rice [10]; [21]): 0
Plant response rating, Velvetleaf (velvetleaf [11]; [20]): 0
Velvetleaf plant response rating (velvetleaf [11]; 125 g ai/ha): 0
Velvetleaf plant response rating (velvetleaf [11]; 500 g ai/ha): 0
Plant response rating, Velvetleaf (velvetleaf [11]; [21]): 0
Blackgrass plant response rating (blackgrass; 125 g ai/ha): 0
Blackgrass plant response rating (blackgrass; 500 g ai/ha): 0
Wheat plant response rating (wheat): 0
Oat, Wild plant response rating (wild oat; 125 g ai/ha): 0
Oat, Wild plant response rating (wild oat; 500 g ai/ha): 0
Rice plant response rating (rice [12]): 0
Sedge, Umbrella plant response rating [13]: 30
Ducksalad plant response rating (ducksalad): 0
Barnyardgrass plant response rating (barnyardgrass [14]): 0

— patent US20060069132A1, “Azolecarboxamide herbicides” (priority 2004, published 2006)
